Test system: MV-4-11 cells
Assay: Gene expression microarray analysis (Affymetrix PrimeView) and GSEA
Format: cell-based, human
Set-up: RFU PODN (11730768_x_at) / Fold change /veh PODN (11730768_x_at) / RFU LINC00158 (11744669_a_at) / Fold change /veh LINC00158 (11744669_a_at) / RFU DUSP10 (11751237_a_at) / Fold change /veh DUSP10 (11751237_a_at) / RFU ID3 (11757404_x_at) / Fold change /veh ID3 (11757404_x_at) / RFU PLEKHG5 (11737974_s_at) / Fold change /veh PLEKHG5 (11737974_s_at) / RFU LRRC4B (11730491_at) / Fold change /veh LRRC4B (11730491_at) / RFU GIMAP4 (11747438_a_at) / Fold change /veh GIMAP4 (11747438_a_at) / RFU KRT8 (11758183_x_at) / Fold change /veh KRT8 (11758183_x_at) / RFU CNN1 (11734310_a_at) / Fold change /veh CNN1 (11734310_a_at) / RFU VPS37D (11726825_at) / Fold change /veh VPS37D (11726825_at) / RFU C10orf10 (11716522_x_at) / Fold change /veh C10orf10 (11716522_x_at) / RFU KIR2DL2 /// KIR2DL4 /// KIR2DL5A /// KIR2DL5B /// KIR2DS1 /// KIR2DS2 /// KIR2DS3 /// KIR2DS4 /// KIR3DL3 /// KIR3DL3 /// KIR3DS1 (11738374_at) / Fold change /veh KIR2DL2 /// KIR2DL4 /// KIR2DL5A /// KIR2DL5B /// KIR2DS1 /// KIR2DS2 /// KIR2DS3 /// KIR2DS4 /// KIR3DL3 /// KIR3DL3 /// KIR3DS1 (11738374_at) / RFU C1QL1 (11718748_at) / Fold change /veh C1QL1 (11718748_at) / RFU TMPRSS4 (11747572_a_at) / Fold change /veh TMPRSS4 (11747572_a_at) / RFU HAMP (11756126_x_at) / Fold change /veh HAMP (11756126_x_at) / RFU RNFT2 (11725882_a_at) / Fold change /veh RNFT2 (11725882_a_at) / RFU NR4A2 (11747474_a_at) / Fold change /veh NR4A2 (11747474_a_at) / RFU ABCC12 (11746883_a_at) / Fold change /veh ABCC12 (11746883_a_at) / RFU TMEM136 (11760407_x_at) / Fold change /veh TMEM136 (11760407_x_at) / RFU CLDN22 /// WWC2 (11732394_at) / Fold change /veh CLDN22 /// WWC2 (11732394_at) / RFU HLA-DPB1 (11760878_x_at) / Fold change /veh HLA-DPB1 (11760878_x_at) / RFU SPINT1 (11716480_a_at) / Fold change /veh SPINT1 (11716480_a_at) / RFU GAP43 (11754022_s_at) / Fold change /veh GAP43 (11754022_s_at) / RFU A4GNT (11735810_at) / Fold change /veh A4GNT (11735810_at) / RFU PRB3 (11715151_x_at) / Fold change /veh PRB3 (11715151_x_at) / RFU TUBB4B (11761932_at) / Fold change /veh TUBB4B (11761932_at) / RFU CAPN14 (11732068_a_at) / Fold change /veh CAPN14 (11732068_a_at) / RFU TMCC2 (11721928_a_at) / Fold change /veh TMCC2 (11721928_a_at) / RFU IRGQ (11745062_a_at) / Fold change /veh IRGQ (11745062_a_at) / RFU FAM174B (11720279_a_at) / Fold change /veh FAM174B (11720279_a_at) / RFU TMPRSS4 (11748680_a_at) / Fold change /veh TMPRSS4 (11748680_a_at) / RFU FAM212B (11763350_a_at) / Fold change /veh FAM212B (11763350_a_at) / RFU PLEKHG5 (11743358_a_at) / Fold change /veh PLEKHG5 (11743358_a_at) / RFU ZSCAN30 (11745921_a_at) / Fold change /veh ZSCAN30 (11745921_a_at) / RFU CMKLR1 (11741424_a_at) / Fold change /veh CMKLR1 (11741424_a_at) / RFU LOC101060620 /// MAPK8IP1 (11723275_at) / Fold change /veh LOC101060620 /// MAPK8IP1 (11723275_at) / RFU SPTSSB (11747773_x_at) / Fold change /veh SPTSSB (11747773_x_at) / RFU PRSS12 (11739890_at) / Fold change /veh PRSS12 (11739890_at) / RFU BIN1 (11741810_x_at) / Fold change /veh BIN1 (11741810_x_at) / RFU WNT11 (11732464_a_at) / Fold change /veh WNT11 (11732464_a_at) / RFU C10orf10 (11716521_a_at) / Fold change /veh C10orf10 (11716521_a_at) / RFU C5orf56 (11738089_at) / Fold change /veh C5orf56 (11738089_at) / RFU CYB561 (11721691_x_at) / Fold change /veh CYB561 (11721691_x_at) / RFU ANKRD19P (11752326_a_at) / Fold change /veh ANKRD19P (11752326_a_at) / RFU OR2T12 /// OR2T33 /// OR2T8 (11738714_s_at) / Fold change /veh OR2T12 /// OR2T33 /// OR2T8 (11738714_s_at) / RFU VCAN (11748164_a_at) / Fold change /veh VCAN (11748164_a_at) / RFU JSRP1 (11732532_at) / Fold change /veh JSRP1 (11732532_at) / RFU KRTAP10-11 (11738290_x_at) / Fold change /veh KRTAP10-11 (11738290_x_at) / RFU MYO3A (11730013_a_at) / Fold change /veh MYO3A (11730013_a_at) / RFU EBF3 (11725865_a_at) / Fold change /veh EBF3 (11725865_a_at) / RFU CAMK2N1 (11719241_x_at) / Fold change /veh CAMK2N1 (11719241_x_at) / RFU C5orf56 (11738088_a_at) / Fold change /veh C5orf56 (11738088_a_at) / RFU OLFML3 (11715873_a_at) / Fold change /veh OLFML3 (11715873_a_at) / RFU LOC100653217 /// NTM (11731650_a_at) / Fold change /veh LOC100653217 /// NTM (11731650_a_at) / RFU MAPK11 (11762145_a_at) / Fold change /veh MAPK11 (11762145_a_at) / RFU FIZ1 (11724087_x_at) / Fold change /veh FIZ1 (11724087_x_at) / RFU OASL (11726364_x_at) / Fold change /veh OASL (11726364_x_at) / RFU SOX15 (11748057_x_at) / Fold change /veh SOX15 (11748057_x_at) / RFU CD79A (11719716_a_at) / Fold change /veh CD79A (11719716_a_at) / RFU HIST1H1D (11736915_at) / Fold change /veh HIST1H1D (11736915_at) / RFU CASKIN2 (11723855_a_at) / Fold change /veh CASKIN2 (11723855_a_at) / RFU LOC730098 (11760151_x_at) / Fold change /veh LOC730098 (11760151_x_at) / RFU OR4N2 (11742367_at) / Fold change /veh OR4N2 (11742367_at) / RFU PRRT2 (11749266_a_at) / Fold change /veh PRRT2 (11749266_a_at) / RFU SNX32 (11753110_a_at) / Fold change /veh SNX32 (11753110_a_at) / RFU CDHR5 (11726645_a_at) / Fold change /veh CDHR5 (11726645_a_at) / RFU RCAN1 (11760418_a_at) / Fold change /veh RCAN1 (11760418_a_at) / RFU FAM167A (11723789_a_at) / Fold change /veh FAM167A (11723789_a_at) / RFU FAM26E (11764081_at) / Fold change /veh FAM26E (11764081_at) / RFU ISYNA1 (11749810_s_at) / Fold change /veh ISYNA1 (11749810_s_at) / RFU ACY1 (11761880_at) / Fold change /veh ACY1 (11761880_at) / RFU 11764098_at / Fold change /veh 11764098_at / RFU SAMD14 (11745864_x_at) / Fold change /veh SAMD14 (11745864_x_at) / RFU NPB (11741838_a_at) / Fold change /veh NPB (11741838_a_at) / RFU TMPRSS6 (11731388_a_at) / Fold change /veh TMPRSS6 (11731388_a_at) / RFU KRTAP10-2 (11738614_at) / Fold change /veh KRTAP10-2 (11738614_at) / RFU ARHGAP8 /// PRR5-ARHGAP8 (11727945_x_at) / Fold change /veh ARHGAP8 /// PRR5-ARHGAP8 (11727945_x_at) / RFU KRTAP5-7 /// NADSYN1 (11734609_at) / Fold change /veh KRTAP5-7 /// NADSYN1 (11734609_at) / RFU RASL12 (11751679_a_at) / Fold change /veh RASL12 (11751679_a_at) / RFU CDKN2B (11736163_a_at) / Fold change /veh CDKN2B (11736163_a_at) / RFU PRF1 (11729649_at) / Fold change /veh PRF1 (11729649_at) / RFU, ZNF638 /// ZNF638-IT1 / Fold change vs veh, ZNF638 /// ZNF638-IT1 / RFU, PANK3 / Fold change vs veh, PANK3 / RFU, SH3YL1 / Fold change vs veh, SH3YL1 / RFU, ZEB2 / Fold change vs veh, ZEB2 / RFU, NRIP1 / Fold change vs veh, NRIP1 / RFU, PTTG1IP / Fold change vs veh, PTTG1IP / RFU, CAPN2 / Fold change vs veh, CAPN2 / RFU, MED14 / Fold change vs veh, MED14 / RFU, SNORA58 / Fold change vs veh, SNORA58 / RFU, C1orf63 / Fold change vs veh, C1orf63 / RFU, LRRFIP1 / Fold change vs veh, LRRFIP1 / RFU, NDUFAF7 / Fold change vs veh, NDUFAF7 / RFU, SLC12A2 / Fold change vs veh, SLC12A2 / RFU, IBTK / Fold change vs veh, IBTK / RFU, ESF1 / Fold change vs veh, ESF1 / Fold change vs veh, TMEM50B / RFU, TAOK1 / Fold change vs veh, TAOK1 / RFU, ACBD3 / Fold change vs veh, ACBD3 / RFU, TMA16 / Fold change vs veh, TMA16 / RFU, RWDD3 / Fold change vs veh, RWDD3 / RFU, BCAT1 / Fold change vs veh, BCAT1 / RFU, EDEM3 / Fold change vs veh, EDEM3 / RFU, TMEM33 / Fold change vs veh, TMEM33 / RFU, WDR75 / Fold change vs veh, WDR75 / RFU, AHCTF1 / Fold change vs veh, AHCTF1 / RFU, TFRC / Fold change vs veh, TFRC / RFU, ZDHHC17 / Fold change vs veh, ZDHHC17 / RFU, NOM1 / Fold change vs veh, NOM1 / RFU, ARL8B / Fold change vs veh, ARL8B / RFU, ZBTB11 / Fold change vs veh, ZBTB11 / RFU, TAMM41 / Fold change vs veh, TAMM41 / RFU, KIAA1704 /// LOC100996395 / Fold change vs veh, KIAA1704 /// LOC100996395 / RFU, ING1 / Fold change vs veh, ING1 / RFU, TRMT61B / Fold change vs veh, TRMT61B / RFU, FUBP3 / Fold change vs veh, FUBP3 / RFU, TP53 / Fold change vs veh, TP53 / RFU, TNKS2 / Fold change vs veh, TNKS2 / RFU, ZFP14 / Fold change vs veh, ZFP14 / RFU, ACTR2 / Fold change vs veh, ACTR2 / RFU, PPP3R1 / Fold change vs veh, PPP3R1 / RFU, PIK3R1 / Fold change vs veh, PIK3R1 / RFU, HNRNPA1 / Fold change vs veh, HNRNPA1 / RFU, RNF170 / Fold change vs veh, RNF170 / RFU, ZNF28 / Fold change vs veh, ZNF28 / RFU, RNGTT / Fold change vs veh, RNGTT / RFU, OGT / Fold change vs veh, OGT / RFU, BRD1 / Fold change vs veh, BRD1 / RFU, MARS / Fold change vs veh, MARS / RFU, ZNF655 / Fold change vs veh, ZNF655 / RFU, FAHD1 / Fold change vs veh, FAHD1 / RFU, BDP1 / Fold change vs veh, BDP1 / RFU, LRRCC1 / Fold change vs veh, LRRCC1 / RFU, ARID1A / Fold change vs veh, ARID1A / RFU, ZNF146 / Fold change vs veh, ZNF146 / RFU, ZNF330 / Fold change vs veh, ZNF330 / RFU, GPN3 / Fold change vs veh, GPN3 / RFU, C9orf123 / Fold change vs veh, C9orf123 / RFU, N4BP2L2 / Fold change vs veh, N4BP2L2 / RFU, ARFIP1 / Fold change vs veh, ARFIP1 / RFU, FAM179B / Fold change vs veh, FAM179B / RFU, BCL10 / Fold change vs veh, BCL10 / RFU, UHRF1BP1L / Fold change vs veh, UHRF1BP1L / RFU, BET1 / Fold change vs veh, BET1 / RFU, CNOT2 / Fold change vs veh, CNOT2 / RFU, ZNF268 / Fold change vs veh, ZNF268 / Fold change vs veh, ZNF507 / RFU, DGCR2 / Fold change vs veh, DGCR2 / RFU, WDSUB1 / Fold change vs veh, WDSUB1 / Fold change vs veh, HSP90B1 /// MIR3652 / RFU, ADSS / Fold change vs veh, ADSS / RFU, GK / Fold change vs veh, GK / RFU, ZNF148 / Fold change vs veh, ZNF148 / RFU, TAF9 / Fold change vs veh, TAF9 / RFU, SLC1A5 / Fold change vs veh, SLC1A5 / RFU, SLMO2 / Fold change vs veh, SLMO2 / RFU, ABCC4 / Fold change vs veh, ABCC4 / RFU, LOC101060439 /// RAP1B / Fold change vs veh, LOC101060439 /// RAP1B / RFU, RFX7 / Fold change vs veh, RFX7 / RFU, GTPBP10 / Fold change vs veh, GTPBP10 / RFU, CNEP1R1 / Fold change vs veh, CNEP1R1 / RFU, BIVM-ERCC5 /// ERCC5 / Fold change vs veh, BIVM-ERCC5 /// ERCC5 / RFU, ILF3 / Fold change vs veh, ILF3 / RFU 11762660_at / Fold change /veh 11762660_at / RFU VCAN (11757783_s_at) / Fold change /veh VCAN (11757783_s_at) / RFU DDX43 (11728927_at) / Fold change /veh DDX43 (11728927_at) / RFU KRT8 (11758188_x_at) / Fold change /veh KRT8 (11758188_x_at) / RFU NKD1 (11759106_at) / Fold change /veh NKD1 (11759106_at) / RFU SRD5A1 (11742802_a_at) / Fold change /veh SRD5A1 (11742802_a_at) / RFU TPSAB1 /// TPSB2 (11721975_s_at) / Fold change /veh TPSAB1 /// TPSB2 (11721975_s_at) / RFU GSTM3 (11746129_a_at) / Fold change /veh GSTM3 (11746129_a_at) / RFU IL23R (11737362_x_at) / Fold change /veh IL23R (11737362_x_at) / RFU TMEM51 (11727254_a_at) / Fold change /veh TMEM51 (11727254_a_at) / RFU PIWIL2 (11732686_x_at) / Fold change /veh PIWIL2 (11732686_x_at) / RFU ORM1 (11744905_x_at) / Fold change /veh ORM1 (11744905_x_at) / RFU CCDC152 (11743942_at) / Fold change /veh CCDC152 (11743942_at) / RFU ECM1 (11717891_a_at) / Fold change /veh ECM1 (11717891_a_at) / RFU IL23R (11748794_a_at) / Fold change /veh IL23R (11748794_a_at) / RFU TNFAIP8L3 (11732012_x_at) / Fold change /veh TNFAIP8L3 (11732012_x_at) / RFU MBOAT4 (11741988_at) / Fold change /veh MBOAT4 (11741988_at) / RFU 11764193_at / Fold change /veh 11764193_at / RFU TMEM53 (11763286_at) / Fold change /veh TMEM53 (11763286_at) / RFU MAGEB2 (11727129_at) / Fold change /veh MAGEB2 (11727129_at) / RFU TMEM200A (11744735_a_at) / Fold change /veh TMEM200A (11744735_a_at) / RFU CCDC152 (11751479_a_at) / Fold change /veh CCDC152 (11751479_a_at) / RFU FAM211A (11726209_a_at) / Fold change /veh FAM211A (11726209_a_at) / RFU RGS16 (11746705_a_at) / Fold change /veh RGS16 (11746705_a_at) / RFU VCAN (11755009_s_at) / Fold change /veh VCAN (11755009_s_at) / RFU RHOB (11743442_s_at) / Fold change /veh RHOB (11743442_s_at) / RFU RGS16 (11720943_a_at) / Fold change /veh RGS16 (11720943_a_at) / RFU RGS16 (11720944_at) / Fold change /veh RGS16 (11720944_at) / RFU, VPS4B / Fold change vs veh, VPS4B / RFU, CREB1 / Fold change vs veh, CREB1 / RFU, DNAJC13 / Fold change vs veh, DNAJC13 / RFU, GNAQ / Fold change vs veh, GNAQ / RFU, CDK5R1 / Fold change vs veh, CDK5R1 / RFU, ZRANB3 / Fold change vs veh, ZRANB3 / RFU, CUL4A / Fold change vs veh, CUL4A / RFU, CCNY / Fold change vs veh, CCNY / RFU, UFL1 / Fold change vs veh, UFL1 / RFU, COG3 / Fold change vs veh, COG3 / RFU, DIAPH2 / Fold change vs veh, DIAPH2 / RFU, SKA2 / Fold change vs veh, SKA2 / RFU, AFF3 / Fold change vs veh, AFF3 / RFU, LMF1 / Fold change vs veh, LMF1 / RFU, IPO11 / Fold change vs veh, IPO11 / RFU, DFFB / Fold change vs veh, DFFB / RFU, FOXP1 / Fold change vs veh, FOXP1 / RFU, CARD8 / Fold change vs veh, CARD8 / RFU, STRN3 / Fold change vs veh, STRN3 / RFU, ADK / Fold change vs veh, ADK / RFU, RASSF2 / Fold change vs veh, RASSF2 / RFU, WIPF1 / Fold change vs veh, WIPF1 / RFU, LARP1B / Fold change vs veh, LARP1B / RFU, RASA1 / Fold change vs veh, RASA1 / RFU, RB1 / Fold change vs veh, RB1 / RFU, PPFIA1 / Fold change vs veh, PPFIA1 / RFU, MAT2A / Fold change vs veh, MAT2A / RFU, CCT5 / Fold change vs veh, CCT5 / RFU, WDR92 / Fold change vs veh, WDR92 / RFU, CUX1 / Fold change vs veh, CUX1 / RFU, TTC7A / Fold change vs veh, TTC7A / RFU, TMEM135 / Fold change vs veh, TMEM135 / RFU, DEPTOR / Fold change vs veh, DEPTOR / RFU, CPM / Fold change vs veh, CPM / RFU, DNAJB6 / Fold change vs veh, DNAJB6 / RFU, CACNA2D3 / Fold change vs veh, CACNA2D3 / RFU, DTX4 / Fold change vs veh, DTX4 / RFU, TFCP2 / Fold change vs veh, TFCP2 / RFU, GMCL1 /// GMCL1P1 / Fold change vs veh, GMCL1 /// GMCL1P1 / RFU, AEBP2 / Fold change vs veh, AEBP2 / RFU, SNHG1 /// SNORD22 /// SNORD25 /// SNORD26 /// SNORD27 /// SNORD28 /// SNORD29 /// SNORD31 / Fold change vs veh, SNHG1 /// SNORD22 /// SNORD25 /// SNORD26 /// SNORD27 /// SNORD28 /// SNORD29 /// SNORD31 / Fold change (Aza/veh), C12orf56 (ProbeSet 11735607_a_at) / Fold change (ACY-1035/veh), C12orf56 (ProbeSet 11735607_a_at) / Fold change (Aza/veh), FGFR1OP (ProbeSet 11751329_s_at) / Fold change (ACY-1035/veh), FGFR1OP (ProbeSet 11751329_s_at) / Fold change (Aza/veh), VPS36 (ProbeSet 11739960_a_at) / Fold change (ACY-1035/veh), VPS36 (ProbeSet 11739960_a_at) / RFU SYPL1 (11715823_x_at) / Fold change /veh SYPL1 (11715823_x_at) / RFU IGFBP7 (11715501_s_at) / Fold change /veh IGFBP7 (11715501_s_at) / RFU REEP3 (11722064_at) / Fold change /veh REEP3 (11722064_at) / RFU IGLL1 (11728026_x_at) / Fold change /veh IGLL1 (11728026_x_at): dose or concentration left out as unconfirmed
Conditions: ProbeSet 11763166_a_at; LIST B

Nc1ccc(-c2cccs2)cc1NC(=O)c1ccc2c(c1)cc(C1CC1)n2CCN1CCOCC1 [ACY-1035]
Fold change vs veh, MARS: 1.14
